From PubChem BioAssay AID1963977 (Molecular Pharmacology Branch, DTP, NCI, 2024)

Tested on: 624824-186-R-J3-PDC multicell spheroids, viability
Assay: Anticancer human tumor 624824-186-R-J3-PDC patient-derived colon adenocarcinoma cell line growth inhibition [PI3K]
Details: for IC50: curve of first compound; for viability, T/C: stronger effect = lower value
Method in brief: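 Viability of mixed-cell spheroids was determined after exposure to pairwise combinations, one partner being inavolisib, alpelisib, duvelisib or copanlisib. Highest tested concentration matched clinical Cmax where known and 10 microM where not, descending in half-log steps.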

[1] = second compound 0.0316 µM, first compound 0.0316 µM
[2] = second compound 0.0316 µM, first compound 0.1 µM
[3] = second compound 0.0316 µM, first compound 0.316 µM
[4] = second compound 0.0316 µM, first compound 1 µM
[5] = second compound 0.0316 µM, first compound 3.16 µM
[6] = second compound 0.0316 µM, first compound 10 µM
[7] = second compound 0.1 µM, first compound 0.0316 µM
[8] = second compound 0.1 µM, first compound 0.1 µM
[9] = second compound 0.1 µM, first compound 0.316 µM
[10] = second compound 0.1 µM, first compound 1 µM
[11] = second compound 0.1 µM, first compound 3.16 µM
[12] = second compound 0.1 µM, first compound 10 µM
[13] = second compound 0.316 µM, first compound 0.0316 µM
[14] = second compound 0.316 µM, first compound 0.1 µM
[15] = second compound 0.316 µM, first compound 0.316 µM
[16] = second compound 0.316 µM, first compound 1 µM
[17] = second compound 0.316 µM, first compound 3.16 µM
[18] = second compound 0.316 µM, first compound 10 µM
[19] = second compound 1 µM, first compound 0.0316 µM
[20] = second compound 1 µM, first compound 0.1 µM
[21] = second compound 1 µM, first compound 0.316 µM
[22] = second compound 1 µM, first compound 1 µM
[23] = second compound 1 µM, first compound 3.16 µM
[24] = second compound 1 µM, first compound 10 µM
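Also: spheroids exposed to agents for seven days before luminescence read.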
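For viability, T/C in this document: luminescent signal used as a stand-in for spheroid viability; percent viability relative to DMSO vehicle control wells taken as 100%.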

## Cn1nccc1Nc1nccc(-c2ccn(C(CO)c3ccc(Cl)c(F)c3)c(=O)c2)n1 (centres undefined) + Cc1nc(NC(=O)N2CCCC2C(N)=O)sc1-c1ccnc(C(C)(C)C(F)(F)F)c1
Second compound 0.0316 µM
  IC50: 8080 nM
Second compound 0.1 µM
  IC50: 5010 nM
Second compound 0.316 µM
  IC50: 1570 nM
Second compound 1 µM
  IC50: 783 nM
Second compound 3.16 µM
  IC50: 223 nM
Second compound 10 µM
  IC50: 100 nM
[1]
  viability, T/C: 119%
[2]
  viability, T/C: 105%
[3]
  viability, T/C: 90.7%
[4]
  viability, T/C: 74.7%
[5]
  viability, T/C: 55%
[6]
  viability, T/C: 49.5%
[7]
  viability, T/C: 109%
[8]
  viability, T/C: 104%
[9]
  viability, T/C: 83.6%
[10]
  viability, T/C: 73%
[11]
  viability, T/C: 56.3%
[12]
  viability, T/C: 40.9%
[13]
  viability, T/C: 106%
[14]
  viability, T/C: 110%
[15]
  viability, T/C: 78%
[16]
  viability, T/C: 58%
[17]
  viability, T/C: 42%
[18]
  viability, T/C: 31.8%
[19]
  viability, T/C: 103%
[20]
  viability, T/C: 89.5%
[21]
  viability, T/C: 72.7%
[22]
  viability, T/C: 43.2%
[23]
  viability, T/C: 29.6%
[24]
  viability, T/C: 25.4%
Second compound 3.16 µM, first compound 0.0316 µM
  viability, T/C: 84.5%
Second compound 3.16 µM, first compound 0.1 µM
  viability, T/C: 77.7%
Second compound 3.16 µM, first compound 0.316 µM
  viability, T/C: 37.6%
Second compound 3.16 µM, first compound 1 µM
  viability, T/C: 21.3%
Second compound 3.16 µM, first compound 3.16 µM
  viability, T/C: 17.8%
Second compound 3.16 µM, first compound 10 µM
  viability, T/C: 16.2%
Second compound 10 µM, first compound 0.0316 µM
  viability, T/C: 62.2%
Second compound 10 µM, first compound 0.1 µM
  viability, T/C: 50.4%
Second compound 10 µM, first compound 0.316 µM
  viability, T/C: 27.3%
Second compound 10 µM, first compound 1 µM
  viability, T/C: 14.1%
Second compound 10 µM, first compound 3.16 µM
  viability, T/C: 10.9%
Second compound 10 µM, first compound 10 µM
  viability, T/C: 7.57%

## C[C@@H](NC(=O)c1ncnc(N)c1Cl)c1ncc(C(=O)Nc2cc(C(F)(F)F)c(Cl)cn2)s1 + COc1c(OCCCN2CCOCC2)ccc2c3n(c(=NC(=O)c4cnc(N)nc4)nc12)CCN3
Second compound 0.00316 µM
  IC50: > 10000 nM
Second compound 0.01 µM
  IC50: > 10000 nM
Second compound 0.0316 µM
  IC50: > 10000 nM
Second compound 0.1 µM
  IC50: 4440 nM
Second compound 0.316 µM
  IC50: 538 nM
Second compound 1 µM
  IC50: < 31.6 nM
Second compound 0.00316 µM, first compound 0.0316 µM
  viability, T/C: 108%
Second compound 0.00316 µM, first compound 0.1 µM
  viability, T/C: 114%
Second compound 0.00316 µM, first compound 0.316 µM
  viability, T/C: 109%
Second compound 0.00316 µM, first compound 1 µM
  viability, T/C: 103%
Second compound 0.00316 µM, first compound 3.16 µM
  viability, T/C: 99%
Second compound 0.00316 µM, first compound 10 µM
  viability, T/C: 85.8%
Second compound 0.01 µM, first compound 0.0316 µM
  viability, T/C: 107%
Second compound 0.01 µM, first compound 0.1 µM
  viability, T/C: 97.9%
Second compound 0.01 µM, first compound 0.316 µM
  viability, T/C: 95.6%
Second compound 0.01 µM, first compound 1 µM
  viability, T/C: 96.2%
Second compound 0.01 µM, first compound 3.16 µM
  viability, T/C: 92.5%
Second compound 0.01 µM, first compound 10 µM
  viability, T/C: 80.2%
[1]
  viability, T/C: 91.3%
[2]
  viability, T/C: 103%
[3]
  viability, T/C: 91.5%
[4]
  viability, T/C: 99.1%
[5]
  viability, T/C: 76.8%
[6]
  viability, T/C: 52.1%
[7]
  viability, T/C: 88.2%
[8]
  viability, T/C: 82.1%
[9]
  viability, T/C: 78.3%
[10]
  viability, T/C: 76.9%
[11]
  viability, T/C: 54.1%
[12]
  viability, T/C: 38.5%
[13]
  viability, T/C: 54.4%
[14]
  viability, T/C: 60.6%
[15]
  viability, T/C: 59.2%
[16]
  viability, T/C: 41%
[17]
  viability, T/C: 28.5%
[18]
  viability, T/C: 23.1%
[19]
  viability, T/C: 32.9%
[20]
  viability, T/C: 31.5%
[21]
  viability, T/C: 31%
[22]
  viability, T/C: 25%
[23]
  viability, T/C: 20.3%
[24]
  viability, T/C: 14.8%
